Measurements taken from patent publication US9982005B2, “Macrolides and methods of their preparation and use” (President and Fellows of Harvard College, priority 2013, dated 2018).
≈ marks a conversion by molar mass, not a printed value. Read-outs that look alike come from different tables or passages of the source.

Tests used:
Format in all cases: cell-based
[1] = tested on: EC882 E. coli imp; test: broth dilution MIC, E. coli EC882
Source text: (§1) We have collected MIC data for a total of 50 novel macrolides that this platform has produced against over 21 unique strains of B. subtilis, E. coli, S. aureus, S. pneumoniae, and H. influenzae, including several multidrug-resistant strains, with a special focus on macrolide resistant mechanisms (vide supra). Azithromycin was included as a control macrolide. CLSI standard procedures for broth dilution MIC determination were used. […] These genotypes can be constitutive or inducible. The finding that C4-epi (unnatural) isomers of the “azaketolide” macrolide class have enhanced activities relative to C4 natural isomers is very exciting.

[2] = tested on: BS1723 B. subtilis BS168 WT wild type; test: broth dilution MIC, B. subtilis BS1723; conditions: BS1723 B. subtilis BS168 WT wild type
Source text: as §1

[3] = tested on: EC107 E. coli ATCC25922; test: broth dilution MIC, E. coli EC107
Source text: as §1

[4] = tested on: SA101 S. aureus ATCC29213; test: broth dilution MIC, S. aureus SA101
Source text: as §1

[5] = tested on: BS1725 B. subtilis ermC; test: broth dilution MIC, B. subtilis BS1725
Source text: as §1

[6] = tested on: EC878 E. coli tolC; test: broth dilution MIC, E. coli EC878
Source text: as §1

[7] = Bacillus subtilis, read-out: MIC
[8] = Escherichia coli, read-out: MIC
[9] = Staphylococcus aureus, ATCC29213, SA101 S. aureus ATCC29213, read-out: MIC
[10] = Bacillus subtilis, BS1725 B. subtilis ermC (+ery)
[11] = Bacillus subtilis, BS1725 B. subtilis ermC (−ery)

| SMILES | MIC ([1]; Escherichia coli) [mg/L] | MIC [2, 7] [mg/L] | MIC [3, 8] [mg/L] | MIC [4, 9] [mg/L] | MIC [5, 10] [mg/L] | MIC [5, 11] [mg/L] | MIC ([6]; Escherichia coli) [mg/L] | MIC [1] [mg/L] | MIC [2] [mg/L] | MIC [3] [mg/L] | MIC ([4]; SA101 S. aureus ATCC29213) [mg/L] | MIC ([5]; BS1725 B. subtilis ermC (+ery)) [mg/L] | MIC ([5]; BS1725 B. subtilis ermC (−ery)) [mg/L] | MIC [6] [mg/L] |
| --- | --- | --- | --- | --- | --- | --- | --- | --- | --- | --- | --- | --- | --- | --- |
| CC[C@H]1OC(=O)[C@](C)(F)C(=O)C[C@@H](O[C@@H]2OC(C)CC(N(C)C)C2O)[C@](C)(OC)C[C@@H](C)CN[C@H](C)[C@H]2N(CCCCn3cc(-c4cccnn4)nn3)C(=O)O[C@]12C (stereo partly shown) [FSM-10667] | 4 (≈ 4.88 µM) | > 32 | > 32 | > 32 | > 32 | > 32 | 16 (≈ 19.5 µM) | – | – | – | – | – | – | – |
| CC[C@H]1OC(=O)[C@](C)(F)C(=O)C[C@@H](O[C@@H]2OC(C)CC(N(C)C)C2O)[C@](C)(OC)C[C@@H](C)CN[C@H](C)[C@H]2N(CCCCn3cc(-c4nccs4)nn3)C(=O)O[C@]12C (stereo partly shown) [FSM-10666] | 4 (≈ 4.85 µM) | > 32 | > 32 | > 32 | > 32 | > 32 | 16 (≈ 19.4 µM) | – | – | – | – | – | – | – |
| CC[C@H]1OC(=O)[C@H](C)C(=O)C[C@@H](O[C@@H]2OC(C)CC(N(C)C)C2O)[C@](C)(OC)C[C@@H](C)CN(C(C)=O)[C@H](C)[C@H]2N(CCCCn3cc(-c4nccs4)nn3)C(=O)O[C@]12C (stereo partly shown) [FSM-10790] | 1 (≈ 1.18 µM) | > 32 | > 32 | > 32 | > 32 | > 32 | 4 (≈ 4.72 µM) | – | – | – | – | – | – | – |
| CC[C@H]1OC(=O)[C@](C)(F)C(=O)C[C@@H](O[C@@H]2OC(C)CC(N(C)C)C2O)[C@](C)(OC)C[C@@H](C)CN[C@H](C)[C@H]2N(CCCCn3cc(-c4ccccn4)nn3)C(=O)O[C@]12C (stereo partly shown) [FSM-10662] | 4 (≈ 4.89 µM) | > 32 | > 32 | > 32 | > 32 | > 32 | 16 (≈ 19.6 µM) | – | – | – | – | – | – | – |
| CC[C@H]1OC(=O)C(C)(F)C(=O)[C@@H](C)[C@@H](O[C@@H]2OC(C)CC(N(C)C)C2O)[C@](C)(OC)C[C@@H](C)CN(C)[C@H](C)[C@H]2N(CCCCn3cc(-c4nccs4)nn3)C(=O)O[C@]12C (stereo partly shown) [FSM-20717] | – | – | – | – | – | – | – | 1 (≈ 1.17 µM) | 16 (≈ 18.8 µM) | >32 | 16 (≈ 18.8 µM) | >32 | 8 (≈ 9.39 µM) | 1 (≈ 1.17 µM) |
| CC[C@H]1OC(=O)[C@H](C)C(=O)C[C@@H](O[C@@H]2OC(C)CC(N(C)C)C2O)[C@@](C)(OC)C[C@@H](C)CN(C(C)=O)[C@H](C)[C@H]2N(CCCCn3cc(-c4nccs4)nn3)C(=O)O[C@]12C (stereo partly shown) [FSM-30503] | > 32 | > 32 | > 32 | > 32 | > 32 | > 32 | > 32 | – | – | – | – | – | – | – |
| CC[C@H]1OC(=O)[C@H](C)C(=O)C[C@@H](O[C@@H]2OC(C)CC(N(C)C)C2O)[C@](C)(OC)C[C@@H](C)CN(C(C)=O)[C@H](C)[C@H]2N(CCCCN=[N+]=[N-])C(=O)O[C@]12C (stereo partly shown) [FSM-10789] | 8 (≈ 10.8 µM) | > 32 | > 32 | > 32 | > 32 | > 32 | 4 (≈ 5.41 µM) | – | – | – | – | – | – | – |
| CC[C@H]1OC(=O)[C@H](C)C(=O)C[C@@H](O[C@@H]2OC(C)CC(N(C)C)C2O)[C@](C)(OC)C[C@@H](C)CN[C@H](C)[C@H]2N(CCCCn3cc(-c4cccnn4)nn3)C(=O)O[C@]12C (stereo partly shown) [FSM-10785] | 1 (≈ 1.25 µM) | > 32 | > 32 | > 32 | > 32 | > 32 | 2 (≈ 2.5 µM) | – | – | – | – | – | – | – |
| CC[C@H]1OC(=O)[C@H](C)C(=O)[C@H](C)[C@@H](O[C@@H]2OC(C)CC(N(C)C)C2O)[C@](C)(OC)C[C@@H](C)CN(C(C)=O)[C@H](C)[C@H]2N(CCCCn3cc(-c4ccccn4)nn3)C(=O)O[C@]12C (stereo partly shown) [FSM-20766] | 1 (≈ 1.17 µM) | 32 (≈ 37.4 µM) | > 32 | 16 (≈ 18.7 µM) | > 32 | – | 4 (≈ 4.67 µM) | – | – | – | – | – | – | – |
| CC[C@H]1OC(=O)[C@H](C)C(=O)[C@H](C)[C@@H](O[C@@H]2OC(C)CC(N(C)C)C2O)[C@](C)(OC)C[C@@H](C)CN(C(C)=O)[C@H](C)[C@H]2N(CCCCn3cc(-c4nccs4)nn3)C(=O)O[C@]12C (stereo partly shown) [FSM-20763] | 2 (≈ 2.32 µM) | 16 (≈ 18.6 µM) | > 32 | 16 (≈ 18.6 µM) | > 32 | – | 4 (≈ 4.64 µM) | – | – | – | – | – | – | – |
| CC[C@H]1OC(=O)[C@](C)(F)C(=O)C[C@@H](O[C@@H]2OC(C)CC(N(C)C)C2O)[C@](C)(OC)C[C@@H](C)CN[C@H](C)[C@H]2N(CCCCn3cc(-c4cccc(N)c4)nn3)C(=O)O[C@]12C (stereo partly shown) [FSM-10661] | 2 (≈ 2.4 µM) | > 32 | > 32 | > 32 | > 32 | > 32 | 16 (≈ 19.2 µM) | – | – | – | – | – | – | – |
| CC[C@H]1OC(=O)[C@H](C)C(=O)C[C@@H](O[C@@H]2OC(C)CC(N(C)C)C2O)[C@](C)(OC)C[C@@H](C)CN(C(C)=O)[C@H](C)[C@H]2N(CCCCn3cc(-c4cccnn4)nn3)C(=O)O[C@]12C (stereo partly shown) [FSM-10794] | 16 (≈ 19 µM) | > 32 | > 32 | > 32 | > 32 | > 32 | 8 (≈ 9.49 µM) | – | – | – | – | – | – | – |
| CC[C@H]1OC(=O)[C@H](C)C(=O)C[C@@H](O[C@@H]2OC(C)CC(N(C)C)C2O)[C@@](C)(OC)C[C@@H](C)CN(C(C)=O)[C@H](C)[C@H]2N(CCCCn3cc(-c4cccnn4)nn3)C(=O)O[C@]12C (stereo partly shown) [FSM-30513] | > 32 | > 32 | > 32 | > 32 | > 32 | > 32 | > 32 | – | – | – | – | – | – | – |
| CC[C@H]1OC(=O)[C@](C)(F)C(=O)C[C@@H](O[C@@H]2OC(C)CC(N(C)C)C2O)[C@](C)(OC)C[C@@H](C)CN[C@H](C)[C@H]2N(CCCCn3cc(-c4nc5ccccc5s4)nn3)C(=O)O[C@]12C (stereo partly shown) [FSM-10671] | 8 (≈ 9.15 µM) | > 32 | > 32 | > 32 | > 32 | > 32 | 32 (≈ 36.6 µM) | – | – | – | – | – | – | – |
| CC[C@H]1OC(=O)[C@H](C)C(=O)C[C@@H](O[C@@H]2OC(C)CC(N(C)C)C2O)[C@@](C)(OC)C[C@@H](C)CN[C@H](C)[C@H]2N(CCCCn3cc(-c4nccs4)nn3)C(=O)O[C@]12C (stereo partly shown) [FSM-30501] | > 32 | > 32 | > 32 | > 32 | > 32 | > 32 | > 32 | – | – | – | – | – | – | – |
| CC[C@H]1OC(=O)[C@H](C)C(=O)C[C@@H](O[C@@H]2OC(C)CC(N(C)C)C2O)[C@@](C)(OC)C[C@@H](C)CN[C@H](C)[C@H]2N(CCCCn3cc(-c4ccccn4)nn3)C(=O)O[C@]12C (stereo partly shown) [FSM-30517] | > 32 | > 32 | > 32 | > 32 | > 32 | > 32 | > 32 | – | – | – | – | – | – | – |
| CC[C@H]1OC(=O)[C@H](C)C(=O)C[C@@H](O[C@@H]2OC(C)CC(N(C)C)C2O)[C@](C)(OC)C[C@@H](C)CN[C@H](C)[C@H]2N(CCCCn3cc(-c4nc5ccccc5s4)nn3)C(=O)O[C@]12C (stereo partly shown) [FSM-10788] | 0.0625 (≈ 0.073 µM) | > 32 | > 32 | > 32 | > 32 | > 32 | 1 (≈ 1.17 µM) | – | – | – | – | – | – | – |
| CC[C@H]1OC(=O)[C@H](C)C(=O)C[C@@H](O[C@@H]2OC(C)CC(N(C)C)C2O)[C@](C)(OC)C[C@@H](C)CN[C@H](C)[C@H]2N(CCCCn3cc(-c4nccs4)nn3)C(=O)O[C@]12C (stereo partly shown) [FSM-10787] | 0.125 (≈ 0.155 µM) | > 32 | 32 (≈ 39.7 µM) | > 32 | > 32 | > 32 | 2 (≈ 2.48 µM) | – | – | – | – | – | – | – |
